In ChEMBL document CHEMBL5236635, “Structure-Based Drug Design and Synthesis of Novel N-Aryl-2,4-bithiazole-2-amine CYP1B1-Selective Inhibitors in Overcoming Taxol Resistance in A549 Cells” (J Med Chem, 2022):

Experiments:
[1] = target: T1, CYP1B1 (Homo sapiens, UniProt Q16678); experiment: Inhibition of recombinant human CYP1B1 assessed as inhibition ratio at 100 nM using 7-ethyl-0-resorufin as substrate incubated for 30 mins in presence of NADPH by EROD assay relative to control; conditions: recombinant human CYP1B1, probe 7-ethyl-0-resorufin
T1 sequence (Q16678 whole entry): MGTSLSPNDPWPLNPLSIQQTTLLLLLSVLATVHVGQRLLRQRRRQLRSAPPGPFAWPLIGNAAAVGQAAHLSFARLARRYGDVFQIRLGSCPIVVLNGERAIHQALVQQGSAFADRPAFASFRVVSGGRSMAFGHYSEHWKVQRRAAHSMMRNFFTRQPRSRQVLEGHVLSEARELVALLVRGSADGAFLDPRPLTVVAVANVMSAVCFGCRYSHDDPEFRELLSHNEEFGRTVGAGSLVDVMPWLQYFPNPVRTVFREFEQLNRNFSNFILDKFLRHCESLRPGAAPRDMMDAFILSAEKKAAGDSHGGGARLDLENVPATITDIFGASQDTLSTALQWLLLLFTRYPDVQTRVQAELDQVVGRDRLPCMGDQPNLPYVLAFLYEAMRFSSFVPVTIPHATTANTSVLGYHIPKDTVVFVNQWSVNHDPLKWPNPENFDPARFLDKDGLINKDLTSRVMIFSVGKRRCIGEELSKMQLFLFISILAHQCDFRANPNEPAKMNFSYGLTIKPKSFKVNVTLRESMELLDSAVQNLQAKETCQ

[2] = target: T2, Cytochrome P450 1A1 (Homo sapiens, UniProt P04798); experiment: Inhibition of recombinant human CYP1A1 using 7-ethyl-0-resorufin as substrate incubated for 30 mins in presence of NADPH by EROD assay
T2 sequence (P04798 whole entry): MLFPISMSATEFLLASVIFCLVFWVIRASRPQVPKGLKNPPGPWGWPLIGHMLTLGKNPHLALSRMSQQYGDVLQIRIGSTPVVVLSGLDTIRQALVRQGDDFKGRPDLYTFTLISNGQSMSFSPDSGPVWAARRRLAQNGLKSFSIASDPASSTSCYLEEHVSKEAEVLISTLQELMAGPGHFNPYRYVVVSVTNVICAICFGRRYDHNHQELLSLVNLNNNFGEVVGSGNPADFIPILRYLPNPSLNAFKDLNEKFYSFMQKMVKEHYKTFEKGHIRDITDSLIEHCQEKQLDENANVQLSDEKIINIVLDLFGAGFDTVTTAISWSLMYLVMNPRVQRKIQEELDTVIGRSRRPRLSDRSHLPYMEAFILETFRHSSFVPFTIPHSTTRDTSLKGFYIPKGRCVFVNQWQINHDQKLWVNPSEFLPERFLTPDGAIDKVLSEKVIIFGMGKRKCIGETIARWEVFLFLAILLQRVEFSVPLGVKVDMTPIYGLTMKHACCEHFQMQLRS

[3] = target: T3, Cytochrome P450 1B1 (Homo sapiens, UniProt Q16678); experiment: Inhibition of recombinant human CYP1B1 using 7-ethyl-0-resorufin as substrate incubated for 30 mins in presence of NADPH by EROD assay
T3 sequence (Q16678 whole entry): T1 sequence (Q16678 whole entry)

[4] = target: T4, Cytochrome P450 1A2 (Homo sapiens, UniProt P05177); experiment: Inhibition of recombinant human CYP1A2 using 7-ethyl-0-resorufin as substrate incubated for 30 mins in presence of NADPH by EROD assay
T4 sequence (P05177 whole entry): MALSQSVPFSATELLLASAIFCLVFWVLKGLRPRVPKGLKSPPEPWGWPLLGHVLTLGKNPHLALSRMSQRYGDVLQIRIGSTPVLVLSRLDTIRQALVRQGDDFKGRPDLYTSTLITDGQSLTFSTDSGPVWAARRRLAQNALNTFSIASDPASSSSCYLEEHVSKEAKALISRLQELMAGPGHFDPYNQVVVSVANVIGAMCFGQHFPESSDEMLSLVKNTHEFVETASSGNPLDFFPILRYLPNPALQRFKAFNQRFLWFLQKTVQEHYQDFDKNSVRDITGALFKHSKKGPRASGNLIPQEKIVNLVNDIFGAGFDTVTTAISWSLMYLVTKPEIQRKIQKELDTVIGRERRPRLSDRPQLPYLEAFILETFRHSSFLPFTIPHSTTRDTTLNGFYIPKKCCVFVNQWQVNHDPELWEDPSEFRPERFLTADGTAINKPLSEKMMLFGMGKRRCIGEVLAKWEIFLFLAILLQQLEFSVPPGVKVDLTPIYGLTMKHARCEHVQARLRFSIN

[5] = system: CYP1A1 versus CYP1B1; experiment: Selectivity index, ratio of IC50 for inhibition of recombinant human CYP1A1 to IC50 for inhibition of recombinant human CYP1B1; conditions: recombinant human CYP1A1 and recombinant human CYP1B1
[6] = system: CYP1A2 versus CYP1B1; experiment: Selectivity index, ratio of IC50 for inhibition of recombinant human CYP1A2 to IC50 for inhibition of recombinant human CYP1B1; conditions: recombinant human CYP1A2 and recombinant human CYP1B1

Structure (SMILES)	inhibition at 0.5 h, 0.1 µM [1]	IC50 [2]	IC50 [3]	IC50 [4]	selectivity ratio [5]	selectivity ratio [6]
c1cncc(-c2csc(-c3csc(Nc4ccc(N5CCOCC5)cc4)n3)n2)c1	–	22.4 nM	15.9 nM	2550 nM	1.4	160
Clc1cc(Cl)cc(Nc2nc(-c3nc(-c4ccccc4)cs3)cs2)c1	–	896 nM	20.1 nM	–	–	–
COc1cc(Nc2nc(-c3nc(-c4ccccc4)cs3)cs2)cc(OC)c1	–	222 nM	3.92 nM	–	–	–
c1cc(-c2csc(-c3csc(Nc4ccc(N5CCOCC5)cc4)n3)n2)ccn1	–	4460 nM	153 nM	312 nM	29.2	2.04
CCc1sc(-c2csc(Nc3cc(OC)cc(OC)c3)n2)nc1-c1ccccc1	–	611 nM	10.8 nM	5250 nM	56.3	484
Fc1ccccc1-c1csc(-c2csc(Nc3ccc(N4CCOCC4)cc3)n2)n1	–	110 nM	12.9 nM	5060 nM	8.48	392
CCc1sc(-c2csc(Nc3cc(Cl)cc(Cl)c3)n2)nc1-c1ccccc1	–	99.9 nM	29.5 nM	227 nM	3.39	7.69
COc1cc(Nc2nc(-c3nc(-c4cccc(Cl)c4)cs3)cs2)cc(OC)c1	–	6520 nM	15.9 nM	–	–	–
COc1ccc(-c2csc(-c3csc(Nc4cccc(F)c4)n3)n2)cc1OC	–	210 nM	567 nM	31.6 nM	0.37	0.06
COc1cccc(-c2csc(-c3csc(Nc4ccc(N5CCOCC5)cc4)n3)n2)c1	–	315 nM	26.8 nM	4670 nM	11.7	174
c1ccc(-c2csc(-c3csc(Nc4ccc(N5CCOCC5)cc4)n3)n2)nc1	–	47.9 nM	12.9 nM	11700 nM	3.71	905
Cc1sc(-c2csc(Nc3cc(Cl)cc(Cl)c3)n2)nc1-c1ccccc1	–	316 nM	23.3 nM	313 nM	13.5	13.4
Cc1sc(-c2csc(Nc3ccc(N4CCOCC4)cc3)n2)nc1-c1ccncc1	–	276 nM	203 nM	1260 nM	1.36	6.2
COc1cc(Nc2nc(-c3nc(-c4ccccc4)c(-c4ccccc4)s3)cs2)cc(OC)c1	–	524 nM	86.2 nM	> 10000 nM	6.08	> 116
Clc1cc(Cl)cc(Nc2nc(-c3nc(-c4ccccc4)c(-c4ccccc4)s3)cs2)c1	–	1920 nM	39 nM	381 nM	49.3	9.77
Clc1cc(Cl)cc(Nc2nc(-c3nc(-c4ccccc4Cl)cs3)cs2)c1	–	1120 nM	6.64 nM	–	–	–
COc1ccc(-c2csc(-c3csc(Nc4cc(OC)cc(OC)c4)n3)n2)cc1	–	823 nM	51.3 nM	–	–	–
COc1cc(Nc2nc(-c3nc(-c4ccc(F)cc4)cs3)cs2)cc(OC)c1	–	> 10000 nM	65.1 nM	–	–	–
Fc1cc(Cl)ccc1-c1csc(-c2csc(Nc3ccc(N4CCOCC4)cc3)n2)n1	–	> 10000 nM	534 nM	995 nM	–	1.86
Fc1cccc(Nc2nc(-c3nc(-c4ccccc4)c(-c4ccccc4)s3)cs2)c1	–	6780 nM	518 nM	–	–	–
COc1cc(Nc2nc(-c3nc(-c4ccc(Cl)cc4F)cs3)cs2)cc(OC)c1	–	> 10000 nM	12.7 nM	> 10000 nM	–	–
COc1cc(Nc2nc(-c3nc(-c4cccc(C#N)c4)cs3)cs2)cc(OC)c1	–	552 nM	16.7 nM	–	–	–
COc1cc(Nc2nc(-c3nc(-c4cccc(F)c4)cs3)cs2)cc(OC)c1	–	820 nM	11.1 nM	–	–	–

The next lines start with results.

inhibition at 0.5 h, 0.1 µM [1]	IC50 [2]	IC50 [3]	IC50 [4]	Structure (SMILES)	selectivity ratio [5]	selectivity ratio [6]
92%	957 nM	35.7 nM	–	Fc1ccc(Nc2nc(-c3nccs3)cs2)cc1	–	–
78.8%	–	–	–	Clc1ccc(Nc2nc(-c3nccs3)cs2)nc1	–	–
93.7%	–	–	–	CC(=O)Nc1cccc(Nc2nc(-c3nccs3)cs2)c1	–	–
–	314 nM	11.8 nM	–	Fc1cccc(Nc2nc(-c3nc(-c4ccccn4)cs3)cs2)c1	–	–
92.4%	–	–	–	c1cc(Nc2nc(-c3nccs3)cs2)cc(-n2ccnc2)c1	–	–
56.4%	–	–	–	c1ccc(Nc2nc(-c3nccs3)cs2)cc1	–	–
57.9%	–	–	–	Nc1cccc(Nc2nc(-c3nccs3)cs2)c1	–	–
94.2%	414 nM	–	–	COc1cccc(Nc2nc(-c3nccs3)cs2)c1	5.39	–
57.6%	–	–	–	O=[N+]([O-])c1cccc(Nc2nc(-c3nccs3)cs2)c1	–	–
90%	262 nM	7.6 nM	–	Clc1cccc(Nc2nc(-c3nccs3)cs2)c1	–	–
94.1%	–	–	–	Fc1ccc(Nc2nc(-c3nccs3)cs2)cc1Cl	–	–
–	> 10000 nM	> 1000 nM	> 10000 nM	Fc1cccc(Nc2nc(-c3nc(-c4ccc(Cl)cc4F)cs3)cs2)c1	–	–
73.9%	–	–	–	Oc1ccc(Nc2nc(-c3nccs3)cs2)cc1	–	–
60%	–	–	–	COc1ccccc1Nc1nc(-c2nccs2)cs1	–	–
93.4%	–	–	–	c1cnc2ccc(Nc3nc(-c4nccs4)cs3)cc2c1	–	–
75%	–	–	–	Fc1ccc(Nc2nc(-c3nccs3)cs2)nc1	–	–
80%	–	–	–	c1ccc2cc(Nc3nc(-c4nccs4)cs3)ccc2c1	–	–

inhibition at 0.5 h, 0.1 µM [1]	IC50 [2]	IC50 [3]	IC50 [4]	Structure (SMILES)	selectivity ratio [5]	selectivity ratio [6]
41.3%	–	–	–	O=[N+]([O-])c1ccc(Nc2nc(-c3nccs3)cs2)cc1	–	–
–	916 nM	44.8 nM	5390 nM	Clc1cc(Cl)cc(Nc2nc(-c3nc(-c4ccccn4)cs3)cs2)c1	20.4	120
43.7%	–	–	–	c1csc(-c2csc(Nc3ccc(N4CCNCC4)cc3)n2)n1	–	–
78.9%	–	–	–	COc1ccc(Nc2nc(-c3nccs3)cs2)cc1OC	–	–
–	30.3 nM	0.551 nM	–	Fc1cccc(Nc2nc(-c3nc(-c4cccnc4)cs3)cs2)c1	–	–
36%	–	–	–	c1cc(Nc2nc(-c3nccs3)cs2)c2cccnc2c1	–	–
81.5%	–	–	–	N#Cc1ccc(Nc2nc(-c3nccs3)cs2)cc1	–	–
72.8%	–	–	–	Clc1ccccc1Nc1nc(-c2nccs2)cs1	–	–
89.6%	–	–	–	Fc1ccccc1Nc1nc(-c2nccs2)cs1	–	–
78%	–	–	–	COc1ccc(Nc2nc(-c3nccs3)cs2)cc1	–	–
72.8%	–	–	–	Oc1cccc(Nc2nc(-c3nccs3)cs2)c1	–	–
–	1270 nM	6.49 nM	–	Fc1cccc(Nc2nc(-c3nc(-c4ccccc4)cs3)cs2)c1	–	–
54%	–	–	–	Nc1ccc(Nc2nc(-c3nccs3)cs2)cc1	–	–
51%	–	–	–	CN1CCN(c2ccc(Nc3nc(-c4nccs4)cs3)cc2)CC1	–	–
82%	–	–	–	c1csc(-c2csc(Nc3ccc(-n4cncn4)cc3)n2)n1	–	–
–	246 nM	246 nM	–	CCc1sc(-c2csc(Nc3cccc(F)c3)n2)nc1-c1ccccc1	–	–
